Experimental data as given in patent US20150203807A1, “INACTIVATION OF A […] USING A FATTY ACID” (NOVOZYMES A/S, priority 2012, published 2015).

Test system: Trichoderma reesei microbial host cells
Experiment: Inactivation of the microbial host cells in fermentation broth (growth on agar plates)
Assay type: cell-based
Settings: hexanoic acid at 0.09%, 0.28%, 0.46%, 0.65% (w/w) in fermentation broth; pH 4.5; 24 hrs constant stirring at room temperature; samples incubated for 4 days at 30 degrees Celsius
Description: The fatty acid is added to the fermentation broth at various concentrations (0.09% (w/w); 0.28% (w/w); 0.46% (w/w); 0.65% (w/w)).
pH is adjusted to 4.5 using an aqueous solution of acetic acid (CAS 64-19-7) and/or aqueous sodium hydroxide (CAS 1310-73-2).
The fermentation broth with the various concentrations of the fatty acid is left at pH 4.5 for 24 hrs with constant stirring at room temperature.
The fermentation broth is tested after 24 hrs and inactivation of the microbial host cells is successful if there is no growth on agar plates—samples are incubated for 4 days at 30 degrees Celsius.
Hexanoic acid (100% sol., CAS 142-62-1) was added to the fermentation broth at various concentrations (0.09% (w/w); 0.28% (w/w); 0.46% (w/w); 0.65% (w/w)).
pH was adjusted to 4.5 using an aqueous solution of acetic acid (CAS 64-19-7) and/or aqueous sodium hydroxide (CAS 1310-73-2).
The fermentation broth with the various concentrations of hexanoic acid was left at pH 4.5 for 24 hrs with constant stirring at room temperature.
After 24 hrs the Trichoderma reesei microbial host cells were inactivated (no growth on agar plates—samples were incubated for 4 days at 30 degrees Celsius).

Q: For `CCCCCC(=O)O` [Hexanoic acid], which “inactivation of Trichoderma reesei microbial host cells (no growth on agar plates)” value is on record?
A: inactivated
